Read-outs that look alike come from different tables or passages of the source.
How the values were obtained:
Experiment in all cases: KiNativ assay
Type in all cases: binding
Details in all cases: H929 live cell
MARK4 = MARK4 (Homo sapiens (Human), UniProt Q96L34)
Procedure: (§1) Biochemical IC50s of the compounds of the present disclosure against various kinases were measured in a KiNativ assay. Compounds were screened in duplicate at 10 μM in H929 live cell. IC50 was measured via Mass spectroscopy (MS).

MSK2 domain1 = MSK2 domain1 (Homo sapiens (Human), UniProt O75676)
Procedure: as §1

eEF2K = eEF2K (Homo sapiens (Human), UniProt O00418)
Procedure: as §1

ACK = ACK (Homo sapiens (Human), UniProt Q07912)
Procedure: as §1

PIK3C3 = PIK3C3 (Homo sapiens (Human), UniProt Q8NEB9)
Procedure: as §1

NDR1 = NDR1 (Homo sapiens (Human), UniProt Q15208)
Procedure: as §1

NEK6, NEK7 = tested on: NEK6, NEK7
Procedure: as §1

CDC2 = CDC2 (Homo sapiens (Human), UniProt P06493)
Procedure: as §1

MAP2K5 = MAP2K5 (Homo sapiens (Human), UniProt Q13163)
Procedure: as §1

PEK = PEK (Homo sapiens (Human), UniProt Q9NZJ5)
Procedure: as §1

GSK3B = GSK3B (Homo sapiens (Human), UniProt P49841)
Procedure: as §1

MST1, MST2 = tested on: MST1, MST2
Procedure: as §1

STLK3 = STLK3 (Homo sapiens (Human), UniProt Q9UEW8)
Procedure: as §1

PFTAIRE1 = PFTAIRE1 (Homo sapiens (Human), UniProt O94921)
Procedure: as §1

GCN2 domain2 = GCN2 domain2 (Homo sapiens (Human), UniProt Q9P2K8)
Procedure: as §1

Erk2 = Erk2 (Homo sapiens (Human), UniProt P28482)
Procedure: as §1

MAP2K1 = MAP2K1 (Homo sapiens (Human), UniProt Q02750)
Procedure: as §1

PRP4 = PRP4 (Homo sapiens (Human), UniProt Q13523)
Procedure: as §1

FRAP = FRAP (Homo sapiens (Human), UniProt P42345)
Procedure: as §1

JNK1, JNK2, JNK3 = tested on: JNK1, JNK2, JNK3
Procedure: as §1

DGKH = DGKH (Homo sapiens (Human), UniProt Q86XP1)
Procedure: as §1

CDK5 = CDK5 (Homo sapiens (Human), UniProt Q00535)
Procedure: as §1

MST4, YSK1 = tested on: MST4, YSK1
Procedure: as §1

MST2 = MST2 (Homo sapiens (Human), UniProt Q13188)
Procedure: as §1

CK1g2 = CK1g2 (Homo sapiens (Human), UniProt P78368)
Procedure: as §1

MAP2K7 = MAP2K7 (Homo sapiens (Human), UniProt O14733)
Procedure: as §1

SRPK1 = SRPK1 (Homo sapiens (Human), UniProt Q96SB4)
Procedure: as §1

PI4KA, PI4KAP2 = tested on: PI4KA, PI4KAP2
Procedure: as §1

MST3 = MST3 (Homo sapiens (Human), UniProt Q9Y6E0)
Procedure: as §1

AKT1 = AKT1 (Homo sapiens (Human), UniProt P31749)
Procedure: as §1

CaMK2d = CaMK2d (Homo sapiens (Human), UniProt Q13557)
Procedure: as §1

PIK3CG = PIK3CG (Homo sapiens (Human), UniProt P48736)
Procedure: as §1

RSK1 domain2 = RSK1 domain2 (Homo sapiens (Human), UniProt Q15418)
Procedure: as §1

[1] = range class, read-out: % inhibition

Chain of eEF2K (O00418 whole entry): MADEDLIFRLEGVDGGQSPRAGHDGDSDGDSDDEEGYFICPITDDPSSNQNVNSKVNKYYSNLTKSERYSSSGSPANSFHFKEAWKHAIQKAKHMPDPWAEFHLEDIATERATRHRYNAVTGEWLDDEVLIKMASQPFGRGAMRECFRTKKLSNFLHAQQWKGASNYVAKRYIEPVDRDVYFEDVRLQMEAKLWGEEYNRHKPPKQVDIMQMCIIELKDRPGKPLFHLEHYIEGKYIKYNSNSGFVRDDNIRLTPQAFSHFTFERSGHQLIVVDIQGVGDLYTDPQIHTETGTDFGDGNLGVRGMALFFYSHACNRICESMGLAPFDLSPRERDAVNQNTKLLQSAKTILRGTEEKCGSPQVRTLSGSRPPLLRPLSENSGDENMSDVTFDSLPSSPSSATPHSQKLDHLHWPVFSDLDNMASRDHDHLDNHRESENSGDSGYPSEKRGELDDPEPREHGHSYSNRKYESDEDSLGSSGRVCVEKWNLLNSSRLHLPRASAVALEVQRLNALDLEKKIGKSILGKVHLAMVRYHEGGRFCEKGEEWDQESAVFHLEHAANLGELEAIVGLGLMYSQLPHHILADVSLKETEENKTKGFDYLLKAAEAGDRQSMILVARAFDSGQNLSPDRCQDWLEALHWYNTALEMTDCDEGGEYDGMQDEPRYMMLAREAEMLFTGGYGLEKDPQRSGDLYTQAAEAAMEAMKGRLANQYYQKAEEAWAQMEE
Chain of ACK (Q07912 whole entry): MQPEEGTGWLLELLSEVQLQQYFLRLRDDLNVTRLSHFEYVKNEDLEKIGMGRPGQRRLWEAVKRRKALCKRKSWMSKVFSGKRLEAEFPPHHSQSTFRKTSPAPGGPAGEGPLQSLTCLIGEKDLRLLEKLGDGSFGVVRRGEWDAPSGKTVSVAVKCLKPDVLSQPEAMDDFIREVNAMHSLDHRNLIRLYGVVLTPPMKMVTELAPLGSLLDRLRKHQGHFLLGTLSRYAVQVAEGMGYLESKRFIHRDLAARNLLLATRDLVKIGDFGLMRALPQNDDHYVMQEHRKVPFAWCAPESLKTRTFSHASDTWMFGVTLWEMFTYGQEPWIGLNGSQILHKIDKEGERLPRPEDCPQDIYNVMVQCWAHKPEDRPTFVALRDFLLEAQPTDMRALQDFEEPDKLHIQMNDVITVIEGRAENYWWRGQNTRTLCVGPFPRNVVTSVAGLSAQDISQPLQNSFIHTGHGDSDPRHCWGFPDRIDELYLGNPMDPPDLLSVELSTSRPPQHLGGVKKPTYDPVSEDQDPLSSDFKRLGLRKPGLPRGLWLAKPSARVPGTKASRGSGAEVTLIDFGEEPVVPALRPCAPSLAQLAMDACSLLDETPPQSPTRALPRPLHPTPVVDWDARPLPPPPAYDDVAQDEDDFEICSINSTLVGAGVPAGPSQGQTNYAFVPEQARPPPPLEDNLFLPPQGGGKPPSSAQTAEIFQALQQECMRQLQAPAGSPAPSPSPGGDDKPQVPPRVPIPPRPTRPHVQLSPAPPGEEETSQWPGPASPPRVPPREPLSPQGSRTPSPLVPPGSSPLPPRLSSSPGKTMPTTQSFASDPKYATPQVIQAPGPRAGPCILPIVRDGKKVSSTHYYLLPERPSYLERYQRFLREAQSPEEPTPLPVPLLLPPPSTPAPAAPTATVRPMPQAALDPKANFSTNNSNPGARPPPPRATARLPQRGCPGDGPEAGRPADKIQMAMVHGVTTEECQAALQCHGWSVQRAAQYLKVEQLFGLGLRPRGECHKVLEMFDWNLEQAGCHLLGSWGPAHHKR
Chain of MST2 (Q13188 whole entry): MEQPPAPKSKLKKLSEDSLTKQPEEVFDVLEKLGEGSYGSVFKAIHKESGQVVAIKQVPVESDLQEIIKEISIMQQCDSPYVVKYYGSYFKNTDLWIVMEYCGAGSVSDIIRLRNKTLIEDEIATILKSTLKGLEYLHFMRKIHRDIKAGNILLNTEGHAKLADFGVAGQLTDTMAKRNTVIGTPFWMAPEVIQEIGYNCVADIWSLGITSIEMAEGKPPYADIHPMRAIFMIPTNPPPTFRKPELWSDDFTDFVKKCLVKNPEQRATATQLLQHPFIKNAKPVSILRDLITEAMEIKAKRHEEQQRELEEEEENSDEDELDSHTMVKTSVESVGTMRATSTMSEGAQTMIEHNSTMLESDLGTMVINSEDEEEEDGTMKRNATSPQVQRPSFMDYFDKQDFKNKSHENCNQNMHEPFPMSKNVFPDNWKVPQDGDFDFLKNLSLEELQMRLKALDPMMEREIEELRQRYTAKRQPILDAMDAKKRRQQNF
Chain of MST3 (Q9Y6E0 whole entry): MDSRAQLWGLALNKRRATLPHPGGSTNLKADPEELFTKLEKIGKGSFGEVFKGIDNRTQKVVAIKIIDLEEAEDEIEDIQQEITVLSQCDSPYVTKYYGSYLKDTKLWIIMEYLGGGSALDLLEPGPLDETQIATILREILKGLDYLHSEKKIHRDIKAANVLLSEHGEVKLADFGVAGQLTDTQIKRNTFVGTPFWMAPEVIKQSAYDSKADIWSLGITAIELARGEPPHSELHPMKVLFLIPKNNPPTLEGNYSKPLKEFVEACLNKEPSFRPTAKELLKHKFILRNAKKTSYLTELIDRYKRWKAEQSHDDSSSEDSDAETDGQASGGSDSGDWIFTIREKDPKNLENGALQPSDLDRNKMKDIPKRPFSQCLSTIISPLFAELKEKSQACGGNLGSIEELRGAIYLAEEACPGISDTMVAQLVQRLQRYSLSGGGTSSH
Chain of MSK2 domain1 (O75676 whole entry, the tested form may be a part): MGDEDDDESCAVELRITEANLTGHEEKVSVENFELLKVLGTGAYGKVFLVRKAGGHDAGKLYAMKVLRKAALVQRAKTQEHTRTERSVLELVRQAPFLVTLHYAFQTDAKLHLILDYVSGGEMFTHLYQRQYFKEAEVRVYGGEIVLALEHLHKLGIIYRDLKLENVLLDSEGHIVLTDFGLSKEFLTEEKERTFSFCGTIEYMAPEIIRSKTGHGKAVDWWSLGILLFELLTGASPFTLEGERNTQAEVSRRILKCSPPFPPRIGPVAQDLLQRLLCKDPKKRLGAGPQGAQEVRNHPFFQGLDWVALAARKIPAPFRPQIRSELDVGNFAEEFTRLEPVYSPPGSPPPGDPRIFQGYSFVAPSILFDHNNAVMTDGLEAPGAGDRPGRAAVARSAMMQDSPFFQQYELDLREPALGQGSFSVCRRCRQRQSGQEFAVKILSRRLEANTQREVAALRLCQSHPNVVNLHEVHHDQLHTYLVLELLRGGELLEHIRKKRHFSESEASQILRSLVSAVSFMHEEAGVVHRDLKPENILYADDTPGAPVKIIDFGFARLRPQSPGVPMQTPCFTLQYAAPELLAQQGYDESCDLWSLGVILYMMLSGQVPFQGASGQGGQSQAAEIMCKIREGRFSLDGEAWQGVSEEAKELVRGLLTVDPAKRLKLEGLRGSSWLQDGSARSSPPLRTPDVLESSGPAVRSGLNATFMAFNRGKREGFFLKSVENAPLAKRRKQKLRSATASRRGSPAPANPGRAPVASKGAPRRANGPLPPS
Chain of CK1g2 (P78368 whole entry): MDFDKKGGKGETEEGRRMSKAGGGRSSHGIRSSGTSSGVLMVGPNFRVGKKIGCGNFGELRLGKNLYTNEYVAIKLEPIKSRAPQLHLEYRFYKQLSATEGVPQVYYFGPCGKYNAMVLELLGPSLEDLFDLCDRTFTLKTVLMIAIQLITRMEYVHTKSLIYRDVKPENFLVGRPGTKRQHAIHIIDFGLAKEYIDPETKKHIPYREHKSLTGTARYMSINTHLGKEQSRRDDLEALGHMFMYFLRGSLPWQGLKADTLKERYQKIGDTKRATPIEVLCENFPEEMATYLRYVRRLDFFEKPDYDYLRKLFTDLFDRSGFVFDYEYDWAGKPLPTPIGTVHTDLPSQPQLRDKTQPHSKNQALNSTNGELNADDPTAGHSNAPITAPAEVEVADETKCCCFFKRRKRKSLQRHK
Chain of PRP4 (Q13523 whole entry): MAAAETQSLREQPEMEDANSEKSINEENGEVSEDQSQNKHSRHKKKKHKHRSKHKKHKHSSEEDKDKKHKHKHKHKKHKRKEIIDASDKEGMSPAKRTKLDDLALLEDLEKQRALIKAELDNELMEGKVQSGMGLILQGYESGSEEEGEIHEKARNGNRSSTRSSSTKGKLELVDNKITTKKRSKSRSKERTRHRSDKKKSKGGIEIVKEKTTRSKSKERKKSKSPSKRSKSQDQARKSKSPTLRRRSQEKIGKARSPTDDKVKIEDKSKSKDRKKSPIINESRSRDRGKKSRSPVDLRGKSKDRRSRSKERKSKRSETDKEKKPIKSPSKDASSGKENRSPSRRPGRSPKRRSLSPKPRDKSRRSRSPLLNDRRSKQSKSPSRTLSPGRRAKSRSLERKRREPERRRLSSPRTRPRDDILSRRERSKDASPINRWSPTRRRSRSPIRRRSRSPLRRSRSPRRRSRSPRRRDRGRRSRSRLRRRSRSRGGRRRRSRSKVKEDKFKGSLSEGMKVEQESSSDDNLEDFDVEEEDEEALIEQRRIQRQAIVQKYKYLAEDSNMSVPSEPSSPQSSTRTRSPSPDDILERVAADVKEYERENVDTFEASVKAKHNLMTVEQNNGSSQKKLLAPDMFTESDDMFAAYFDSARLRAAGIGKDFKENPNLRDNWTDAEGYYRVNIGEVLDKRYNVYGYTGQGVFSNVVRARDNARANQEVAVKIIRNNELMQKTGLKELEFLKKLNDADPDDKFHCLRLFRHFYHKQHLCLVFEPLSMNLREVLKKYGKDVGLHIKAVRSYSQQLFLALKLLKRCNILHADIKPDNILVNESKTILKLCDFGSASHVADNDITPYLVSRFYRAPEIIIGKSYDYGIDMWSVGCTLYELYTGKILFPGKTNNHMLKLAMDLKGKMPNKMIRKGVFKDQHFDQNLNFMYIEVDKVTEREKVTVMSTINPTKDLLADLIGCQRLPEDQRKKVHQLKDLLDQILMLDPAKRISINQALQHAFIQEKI

CN(C1CC1)S(=O)(=O)c1ccc(-c2cnc(N)c(-c3ccc4c(c3)CCNC4=O)c2)c(F)c1 [Compound I-28, 4-(6-amino-5-(1-oxo-1,2,3,4-tetrahydroisoquinolin-6-yl)pyridin-3-yl)-N-cyclopropyl-3-fluoro-N-methylbenzenesulfonamide]
inhibition at 10 µM (MARK4; read-out: % inhibition (range)): 0%
inhibition at 10 µM (MARK4; read-out: inhibition (10 μM)): 23.1%
inhibition at 10 µM (MSK2 domain1; read-out: % inhibition (range)): 0%
inhibition at 10 µM (MSK2 domain1; read-out: inhibition (10 μM)): 2.9%
inhibition at 10 µM (eEF2K; read-out: % inhibition (range)): 0%
inhibition at 10 µM (eEF2K; read-out: inhibition (10 μM)): -15.1%
inhibition at 10 µM (ACK; read-out: % inhibition (range)): 0%
inhibition at 10 µM (ACK; read-out: inhibition (10 μM)): -18.8%
inhibition at 10 µM (PIK3C3; read-out: % inhibition (range)): > 100%
inhibition at 10 µM (PIK3C3; read-out: inhibition (10 μM)): -107%
inhibition at 10 µM (NDR1; read-out: % inhibition (range)): 0%
inhibition at 10 µM (NDR1; read-out: inhibition (10 μM)): 24.6%
% inhibition (range) (NEK6, NEK7; 10 μM): 0.0%
inhibition (10 μM) (NEK6, NEK7): −10.5%
inhibition at 10 µM (CDC2; read-out: % inhibition (range)): 0%
inhibition at 10 µM (CDC2; read-out: inhibition (10 μM)): -26.5%
inhibition at 10 µM (MAP2K5; read-out: % inhibition (range)): 50 to 75%
inhibition at 10 µM (MAP2K5; read-out: inhibition (10 μM)): 58%
inhibition at 10 µM (PEK; read-out: % inhibition (range)): 0%
inhibition at 10 µM (PEK; read-out: inhibition (10 μM)): -15.7%
inhibition at 10 µM (GSK3B; read-out: % inhibition (range)): > 90%
inhibition at 10 µM (GSK3B; read-out: inhibition (10 μM)): 96.4%
% inhibition (range) (MST1, MST2; 10 μM): >90%
inhibition (10 μM) (MST1, MST2): 97.5%
inhibition at 10 µM (STLK3; read-out: % inhibition (range)): 0%
inhibition at 10 µM (STLK3; read-out: inhibition (10 μM)): 13.5%
inhibition at 10 µM (PFTAIRE1; read-out: % inhibition (range)): 0%
inhibition at 10 µM (PFTAIRE1; read-out: inhibition (10 μM)): 22.2%
inhibition at 10 µM (GCN2 domain2; read-out: % inhibition (range)): 0%
inhibition at 10 µM (GCN2 domain2; read-out: inhibition (10 μM)): -32.1%
inhibition at 10 µM (Erk2; read-out: % inhibition (range)): 0%
inhibition at 10 µM (Erk2; read-out: inhibition (10 μM)): 13.9%
inhibition at 10 µM (MAP2K1; read-out: % inhibition (range)): 0%
inhibition at 10 µM (MAP2K1; read-out: inhibition (10 μM)): -5.5%
inhibition at 10 µM (PRP4; read-out: % inhibition (range)): 0%
inhibition at 10 µM (PRP4; read-out: inhibition (10 μM)): 3.7%
inhibition at 10 µM (FRAP; read-out: % inhibition (range)): 35 to 50%
inhibition at 10 µM (FRAP; read-out: inhibition (10 μM)): 35.3%
% inhibition (range) (JNK1, JNK2, JNK3; 10 μM): 0.0%
inhibition (10 μM) (JNK1, JNK2, JNK3): −12.9%
inhibition at 10 µM (DGKH; read-out: % inhibition (range)): 0%
inhibition at 10 µM (DGKH; read-out: inhibition (10 μM)): 10.9%
inhibition at 10 µM (CDK5; read-out: % inhibition (range)): 0%
inhibition at 10 µM (CDK5; read-out: inhibition (10 μM)): 17%
% inhibition (range) (MST4, YSK1; 10 μM): 75-90%
inhibition (10 μM) (MST4, YSK1): 76.7%
inhibition at 10 µM (MST2; read-out: % inhibition (range)): 75 to 90%
inhibition at 10 µM (MST2; read-out: inhibition (10 μM)): 89.3%
inhibition at 10 µM (CK1g2; read-out: % inhibition (range)): > 90%
inhibition at 10 µM (CK1g2; read-out: inhibition (10 μM)): > 90%
inhibition at 10 µM (MAP2K7; read-out: % inhibition (range)): 0%
inhibition at 10 µM (MAP2K7; read-out: inhibition (10 μM)): -0.5%
inhibition at 10 µM (SRPK1; read-out: % inhibition (range)): 0%
inhibition at 10 µM (SRPK1; read-out: inhibition (10 μM)): 19.5%
% inhibition (range) (PI4KA, PI4KAP2; 10 μM): 0.0%
inhibition (10 μM) (PI4KA, PI4KAP2): −13.2%
inhibition at 10 µM (MST3; read-out: % inhibition (range)): 50 to 75%
inhibition at 10 µM (MST3; read-out: inhibition (10 μM)): 72.3%
inhibition at 10 µM (AKT1; read-out: % inhibition (range)): 0%
inhibition at 10 µM (AKT1; read-out: inhibition (10 μM)): 11.1%
inhibition at 10 µM (CaMK2d; read-out: % inhibition (range)): 0%
inhibition at 10 µM (CaMK2d; read-out: inhibition (10 μM)): -31%
inhibition at 10 µM (PIK3CG; read-out: % inhibition (range)): 0%
inhibition at 10 µM (PIK3CG; read-out: inhibition (10 μM)): 1.7%
inhibition at 10 µM (RSK1 domain2; read-out: % inhibition (range)): 0%
inhibition at 10 µM (RSK1 domain2; read-out: inhibition (10 μM)): 3.8%

COc1cc(NS(=O)(=O)C2CC2)ccc1-c1cnc(N)c(-c2ccc3c(c2)CCNC3=O)c1 [Compound I-50, N-(4-(6-amino-5-(1-oxo-1,2,3,4-tetrahydroisoquinolin-6-yl)pyridin-3-yl)-3-methoxyphenyl) cyclopropanesulfonamide]
inhibition at 10 µM (MARK4; [1]): 0%
inhibition at 10 µM (MARK4; read-out: inhibition (10 μM)): 6.8%
inhibition at 10 µM (MSK2 domain1; [1]): 0%
inhibition at 10 µM (MSK2 domain1; read-out: inhibition (10 μM)): -2.8%
inhibition at 10 µM (eEF2K; [1]): 0%
inhibition at 10 µM (eEF2K; read-out: inhibition (10 μM)): -1%
inhibition at 10 µM (ACK; [1]): 0%
inhibition at 10 µM (ACK; read-out: inhibition (10 μM)): 11.3%
inhibition at 10 µM (PIK3C3; [1]): 0%
inhibition at 10 µM (PIK3C3; read-out: inhibition (10 μM)): -32.5%
inhibition at 10 µM (NDR1; [1]): 0%
inhibition at 10 µM (NDR1; read-out: inhibition (10 μM)): 20.2%
% inhibition (NEK6, NEK7; 10 μM, range class): 0.0%
inhibition (10 μM) (NEK6, NEK7): −54.5%
inhibition at 10 µM (CDC2; [1]): 0%
inhibition at 10 µM (CDC2; read-out: inhibition (10 μM)): 13.7%
inhibition at 10 µM (MAP2K5; [1]): 0%
inhibition at 10 µM (MAP2K5; read-out: inhibition (10 μM)): -12.1%
inhibition at 10 µM (PEK; [1]): 0%
inhibition at 10 µM (PEK; read-out: inhibition (10 μM)): 7.9%
inhibition at 10 µM (GSK3B; [1]): 75 to 90%
inhibition at 10 µM (GSK3B; read-out: inhibition (10 μM)): 81.1%
% inhibition (MST1, MST2; 10 μM, range class): >90%
inhibition (10 μM) (MST1, MST2): 98.7%
inhibition at 10 µM (STLK3; [1]): 0%
inhibition at 10 µM (STLK3; read-out: inhibition (10 μM)): -12.3%
inhibition at 10 µM (PFTAIRE1; [1]): 0%
inhibition at 10 µM (PFTAIRE1; read-out: inhibition (10 μM)): -2.4%
inhibition at 10 µM (GCN2 domain2; [1]): 0%
inhibition at 10 µM (GCN2 domain2; read-out: inhibition (10 μM)): -12.3%
inhibition at 10 µM (Erk2; [1]): 0%
inhibition at 10 µM (Erk2; read-out: inhibition (10 μM)): 34.5%
inhibition at 10 µM (MAP2K1; [1]): 0%
inhibition at 10 µM (MAP2K1; read-out: inhibition (10 μM)): 17.8%
inhibition at 10 µM (PRP4; [1]): 0%
inhibition at 10 µM (PRP4; read-out: inhibition (10 μM)): -17.9%
inhibition at 10 µM (FRAP; [1]): 0%
inhibition at 10 µM (FRAP; read-out: inhibition (10 μM)): 21.5%
% inhibition (JNK1, JNK2, JNK3; 10 μM, range class): 0.0%
inhibition (10 μM) (JNK1, JNK2, JNK3): 26.8%
inhibition at 10 µM (DGKH; [1]): 0%
inhibition at 10 µM (DGKH; read-out: inhibition (10 μM)): 6.3%
inhibition at 10 µM (CDK5; [1]): 0%
inhibition at 10 µM (CDK5; read-out: inhibition (10 μM)): 11.3%
% inhibition (MST4, YSK1; 10 μM, range class): 35-40%
inhibition (10 μM) (MST4, YSK1): 35.4%
inhibition at 10 µM (MST2; [1]): > 90%
inhibition at 10 µM (MST2; read-out: inhibition (10 μM)): 97.5%
inhibition at 10 µM (CK1g2; [1]): 75 to 90%
inhibition at 10 µM (CK1g2; read-out: inhibition (10 μM)): 79.9%
inhibition at 10 µM (MAP2K7; [1]): 0%
inhibition at 10 µM (MAP2K7; read-out: inhibition (10 μM)): 16.4%
inhibition at 10 µM (SRPK1; [1]): 0%
inhibition at 10 µM (SRPK1; read-out: inhibition (10 μM)): -9.2%
% inhibition (PI4KA, PI4KAP2; 10 μM, range class): 0.0%
inhibition (10 μM) (PI4KA, PI4KAP2): 24.7%
inhibition at 10 µM (MST3; [1]): 0%
inhibition at 10 µM (MST3; read-out: inhibition (10 μM)): 20%
inhibition at 10 µM (AKT1; [1]): 0%
inhibition at 10 µM (AKT1; read-out: inhibition (10 μM)): 2.1%
inhibition at 10 µM (CaMK2d; [1]): 0%
inhibition at 10 µM (CaMK2d; read-out: inhibition (10 μM)): 15.9%
inhibition at 10 µM (PIK3CG; [1]): 0%
inhibition at 10 µM (PIK3CG; read-out: inhibition (10 μM)): -74.9%
inhibition at 10 µM (RSK1 domain2; [1]): 0%
inhibition at 10 µM (RSK1 domain2; read-out: inhibition (10 μM)): 1%
